Results on 15 compounds are retold here after patent publication US12404241B2 (Celgene Corporation, priority 2018, dated 2025).

Counter-ions that a name gives are not always drawn.

For this assay, the target named is T1, AR (Homo sapiens, UniProt P10275).
T1 construct: endogenous in cells; host or cells: VCaP cells
T1 sequence (P10275 1-920): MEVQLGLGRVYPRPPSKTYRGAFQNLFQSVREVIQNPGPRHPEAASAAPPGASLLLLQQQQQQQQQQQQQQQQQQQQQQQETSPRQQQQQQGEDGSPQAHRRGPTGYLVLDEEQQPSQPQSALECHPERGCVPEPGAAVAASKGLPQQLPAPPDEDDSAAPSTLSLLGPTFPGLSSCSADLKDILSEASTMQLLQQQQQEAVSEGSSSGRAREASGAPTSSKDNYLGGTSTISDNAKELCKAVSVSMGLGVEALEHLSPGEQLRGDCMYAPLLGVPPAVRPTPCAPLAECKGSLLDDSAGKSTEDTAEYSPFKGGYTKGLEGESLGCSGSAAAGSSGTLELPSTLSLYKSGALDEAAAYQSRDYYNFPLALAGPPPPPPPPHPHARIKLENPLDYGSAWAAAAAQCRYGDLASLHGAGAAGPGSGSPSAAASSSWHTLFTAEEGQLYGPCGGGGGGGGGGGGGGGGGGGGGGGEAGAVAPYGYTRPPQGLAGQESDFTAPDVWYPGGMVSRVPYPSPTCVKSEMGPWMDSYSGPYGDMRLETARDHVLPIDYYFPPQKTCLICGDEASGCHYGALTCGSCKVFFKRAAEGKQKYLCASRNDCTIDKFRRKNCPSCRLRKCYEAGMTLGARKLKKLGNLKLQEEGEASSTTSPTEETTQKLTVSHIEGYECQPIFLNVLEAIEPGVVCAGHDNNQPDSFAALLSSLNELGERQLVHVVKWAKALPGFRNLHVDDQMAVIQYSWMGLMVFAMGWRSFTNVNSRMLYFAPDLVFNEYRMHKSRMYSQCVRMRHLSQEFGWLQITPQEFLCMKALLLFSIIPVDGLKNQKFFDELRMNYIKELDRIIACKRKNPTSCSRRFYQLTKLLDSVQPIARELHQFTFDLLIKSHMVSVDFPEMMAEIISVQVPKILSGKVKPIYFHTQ
Nature of the assay: VCAP AR Degradation Assay. The class given is cell-based. Particulars: for Y (AR degradation efficiency, % of DMSO control): class symbols *; for DC50: class symbols A-C, read-out: DC50. The method in brief:
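Compounds were plated as 10-point 1:3 series reaching 5 μM final, then VCaP cells were seeded onto them and incubated 24 h at 37 °C. Cells were lysed cold, and total AR was measured by sandwich ELISA relative to 0.1% DMSO wells.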

The DC50 is the concentration giving 50% degradation. With `CCc1cc(N2C(=S)N(c3cnc(C#N)c(C(F)(F)F)c3)C(=O)C2(C)C)ccc1OCCN1C[C@@H](C)N(CC(=O)Nc2cccc(NC3CCC(=O)NC3=O)c2)[C@@H](C)C1` (stereo partly drawn) [Example 151, 2-((2R,6S)-4-(2-(4-(3-(6-cyano-5-(trifluoromethyl)pyridin-3-yl)-5,5-dimethyl-4-oxo-2-thioxoimidazolidin-1-yl)-2-ethylphenoxy)ethyl)-2,6-dimethylpiperazin-1-yl)-N-(3-(2,6-dioxopiperidin-3-ylamino)phenyl)acetamide], the “Y (AR degradation efficiency, % of DMSO control)” value is “* (0<Y<=25%)” and the DC50 was under 100 nM.
Regarding `CCCc1cc(N2C(=S)N(c3cnc(C#N)c(C(F)(F)F)c3)C(=O)C2(C)C)ccc1OCCN1CCN(CC(=O)Nc2cccc(NC3CCC(=O)NC3=O)c2)CC1` (stereo not drawn) [Example 38, hydrochloride], the “Y (AR degradation efficiency, % of DMSO control)” value is given as “* (0<Y<=25%)” and the 50% degradation concentration (DC50) is under 100 nM.
On to `C[C@@H]1CN(CCOc2ccc(N3C(=S)N(c4ccc(C#N)c(C(F)(F)F)c4)C(=O)C3(C)C)cc2C2CC2)C[C@H](C)N1CC(=O)Nc1cccc(N[C@H]2CCC(=O)NC2=O)c1` [Example 289, 2-((2R,6S)-4-(2-(4-(3-(4-cyano-3-(trifluoromethyl)phenyl)-5,5-dimethyl-4-oxo-2-thioxoimidazolidin-1-yl)-2-cyclopropylphenoxy)ethyl)-2,6-dimethylpiperazin-1-yl)-N-(3-((S)-2,6-dioxopiperidin-3-ylamino)phenyl)acetamide], for which the “Y (AR degradation efficiency, % of DMSO control)” value is “* (0<Y<=25%)” and the DC50 was under 100 nM.
On the same counts, the results for `C[C@@H]1CN(CCOc2ccc(N3C(=S)N(c4ccc(C#N)c(C(F)(F)F)c4)C(=O)C3(C)C)cc2Cl)C[C@H](C)N1CC(=O)Nc1cccc(NC2CCC(=O)NC2=O)c1` (stereo partly drawn) [Example 282, 2-((2S,6R)-4-(2-(2-chloro-4-(3-(4-cyano-3-(trifluoromethyl)phenyl)-5,5-dimethyl-4-oxo-2-thioxoimidazolidin-1-yl)phenoxy)ethyl)-2,6-dimethylpiperazin-1-yl)-N-(3-(2,6-dioxopiperidin-3-ylamino)phenyl)acetamide] are “* (0<Y<=25%)” and under 100 nM.
On the same counts, the results for `CCc1cc(N2C(=S)N(c3ccc(C#N)c(C(F)(F)F)c3)C(=O)C2(C)C)ccc1OCCN1CCN(CC(=O)Nc2cc(Cl)cc(NC3CCC(=O)NC3=O)c2)C2(CC2)C1` (stereo not drawn) [Example 101, N-(3-chloro-5-(2,6-dioxopiperidin-3-ylamino)phenyl)-2-(7-(2-(4-(3-(4-cyano-3-(trifluoromethyl)phenyl)-5,5-dimethyl-4-oxo-2-thioxoimidazolidin-1-yl)-2-ethylphenoxy)ethyl)-4,7-diazaspiro[2.5]octan-4-yl)acetamide] are “* (0<Y<=25%)” and under 100 nM.
The like results for `CCc1cc(N2C(=S)N(c3cnc(C#N)c(C(F)(F)F)c3)C(=O)C2(C)C)ccc1OCCN1CCN(CC(=O)Nc2cc(NC3CCC(=O)NC3=O)ccc2F)CC1` (stereo not drawn) [Example 64, 2-(4-(2-(4-(3-(6-cyano-5-(trifluoromethyl)pyridin-3-yl)-5,5-dimethyl-4-oxo-2-thioxoimidazolidin-1-yl)-2-ethylphenoxy)ethyl)piperazin-1-yl)-N-(5-(2,6-dioxopiperidin-3-ylamino)-2-fluorophenyl)acetamide] were, in that order, “* (0<Y<=25%)” and under 100 nM.
In the case of `CCc1cc(N2C(=S)N(c3ccc(C#N)c(C(F)(F)F)c3)C(=O)C2(C)C)ccc1OC[C@H](C)N1C[C@@H](C)N(CC(=O)Nc2cccc(NC3CCC(=O)NC3=O)c2)[C@@H](C)C1` (single isomer, unassigned) [Example 236], the “Y (AR degradation efficiency, % of DMSO control)” value is given as “** (25%<Y<=35%)” and the DC50 was 100 to 500 nM.
On the same counts, the results for `CCc1cc(N2C(=S)N(c3cnc(C#N)c(C(F)(F)F)c3)C(=O)C2(C)C)ccc1OCCN1CCN(CC(=O)Nc2cccc(NC3CCC(=O)NC3=O)c2)[C@H](C)C1` (stereo partly drawn) [Example 81, 2-((R)-4-(2-(4-(3-(6-cyano-5-(trifluoromethyl)pyridin-3-yl)-5,5-dimethyl-4-oxo-2-thioxoimidazolidin-1-yl)-2-ethylphenoxy)ethyl)-2-methylpiperazin-1-yl)-N-(3-(2,6-dioxopiperidin-3-ylamino)phenyl)acetamide] are “* (0<Y<=25%)” and under 100 nM.
For `C[C@@H]1CN(CCOc2ccc(N3C(=S)N(c4cnc(C#N)c(C(F)(F)F)c4)C(=O)C3(C)C)cc2C2CC2)C[C@H](C)N1CC(=O)Nc1cccc(NC2CCC(=O)NC2=O)c1` (stereo partly drawn) [Example 235, 2-((2S,6R)-4-(2-(4-(3-(6-cyano-5-(trifluoromethyl)pyridin-3-yl)-5,5-dimethyl-4-oxo-2-thioxoimidazolidin-1-yl)-2-cyclopropylphenoxy)ethyl)-2,6-dimethylpiperazin-1-yl)-N-(3-(2,6-dioxopiperidin-3-ylamino)phenyl)acetamide], the “Y (AR degradation efficiency, % of DMSO control)” value is listed as “* (0<Y<=25%)” and the DC50 was under 100 nM.
The like results for `CCc1cc(N2C(=S)N(c3ccc(C#N)c(C(F)(F)F)c3)C(=O)C2(C)C)ccc1OCCN1CCN([C@@H](C)C(=O)Nc2cccc(NC3CCC(=O)NC3=O)c2)CC1` (stereo partly drawn) [Example 57, (2S)-2-(4-(2-(4-(3-(4-cyano-3-(trifluoromethyl)phenyl)-5,5-dimethyl-4-oxo-2-thioxoimidazolidin-1-yl)-2-ethylphenoxy)ethyl)piperazin-1-yl)-N-(3-(2,6-dioxopiperidin-3-ylamino)phenyl)propanamide] were, in that order, “* (0<Y<=25%)” and under 100 nM.
On the same counts, the results for `CC(C)c1cc(N2C(=S)N(c3ccc(C#N)c(C(F)(F)F)c3)C(=O)C2(C)C)cnc1OCCN1C[C@@H](C)N(CC(=O)Nc2cccc(NC3CCC(=O)NC3=O)c2)C[C@H]1C` (stereo partly drawn) [Example 230, 2-((2R,5R)-4-(2-(5-(3-(4-cyano-3-(trifluoromethyl)phenyl)-5,5-dimethyl-4-oxo-2-thioxoimidazolidin-1-yl)-3-isopropylpyridin-2-yloxy)ethyl)-2,5-dimethylpiperazin-1-yl)-N-(3-(2,6-dioxopiperidin-3-ylamino)phenyl)acetamide] are “*** (35%<Y<50%)” and 500 to 1000 nM.
The like results for `CC1(C)C(=O)N(c2cnc(C#N)c(C(F)(F)F)c2)C(=S)N1c1ccc(OCCN2CCN(CC(=O)Nc3cc(Cl)cc(NC4CCC(=O)NC4=O)c3)CC2)c(CC(F)F)c1` (stereo not drawn) [Example 67, N-(3-chloro-5-(2,6-dioxopiperidin-3-ylamino)phenyl)-2-(4-(2-(4-(3-(6-cyano-5-(trifluoromethyl)pyridin-3-yl)-5,5-dimethyl-4-oxo-2-thioxoimidazolidin-1-yl)-2-(2,2-difluoroethyl)phenoxy)ethyl)piperazin-1-yl)acetamide] were, in that order, “* (0<Y<=25%)” and under 100 nM.
For the compound `CCc1cc(N2C(=S)N(c3ccc(C#N)c(C(F)(F)F)c3)C(=O)C2(C)C)ccc1OCCN1CCN(CC(=O)Nc2cc(Cl)cc(NC3CCC(=O)NC3=O)c2)[C@H](C)C1` (stereo partly drawn) [Example 87, N-(3-chloro-5-(2,6-dioxopiperidin-3-ylamino)phenyl)-2-((R)-4-(2-(4-(3-(4-cyano-3-(trifluoromethyl)phenyl)-5,5-dimethyl-4-oxo-2-thioxoimidazolidin-1-yl)-2-ethylphenoxy)ethyl)-2-methylpiperazin-1-yl)acetamide], the “Y (AR degradation efficiency, % of DMSO control)” value is “* (0<Y<=25%)” and the DC50 was under 100 nM.
Take `C[C@@H]1CN(CCOc2ccc(N3C(=S)N(c4ccc(C#N)c(C(F)(F)F)c4)C(=O)C34CCC4)cc2CCF)CCN1CC(=O)Nc1cc(Cl)cc(NC2CCC(=O)NC2=O)c1` (stereo partly drawn) [Example 143, N-(3-chloro-5-(2,6-dioxopiperidin-3-ylamino)phenyl)-2-((R)-4-(2-(4-(7-(4-cyano-3-(trifluoromethyl)phenyl)-8-oxo-6-thioxo-5,7-diazaspiro[3.4]octan-5-yl)-2-(2-fluoroethyl)phenoxy)ethyl)-2-methylpiperazin-1-yl)acetamide]: the “Y (AR degradation efficiency, % of DMSO control)” value is “* (0<Y<=25%)” and the DC50 is under 100 nM.
`CC[C@@H]1CN(CCOc2ccc(N3C(=S)N(c4ccc(C#N)c(C(F)(F)F)c4)C(=O)C3(C)C)cc2C2CC2)CCN1CC(=O)Nc1cccc(NC2CCC(=O)NC2=O)c1` (stereo partly drawn) [Example 261, 2-((R)-4-(2-(4-(3-(4-cyano-3-(trifluoromethyl)phenyl)-5,5-dimethyl-4-oxo-2-thioxoimidazolidin-1-yl)-2-cyclopropylphenoxy)ethyl)-2-ethylpiperazin-1-yl)-N-(3-(2,6-dioxopiperidin-3-ylamino)phenyl)acetamide]: the “Y (AR degradation efficiency, % of DMSO control)” value was “** (25%<Y<=35%)” and the DC50 is 100 to 500 nM.
